# Measurements taken from PMC7792585, “Trospium Chloride Transport by Mouse Drug Carriers of the Slc22 and Slc47 Families” (International Journal of Molecular Sciences, 2020).
# T1: mMate2 (Mus musculus, UniProt Q3V050)
# T1 construct: gene Slc47a2; full open reading frame
# T1 sequence (Q3V050 1-573): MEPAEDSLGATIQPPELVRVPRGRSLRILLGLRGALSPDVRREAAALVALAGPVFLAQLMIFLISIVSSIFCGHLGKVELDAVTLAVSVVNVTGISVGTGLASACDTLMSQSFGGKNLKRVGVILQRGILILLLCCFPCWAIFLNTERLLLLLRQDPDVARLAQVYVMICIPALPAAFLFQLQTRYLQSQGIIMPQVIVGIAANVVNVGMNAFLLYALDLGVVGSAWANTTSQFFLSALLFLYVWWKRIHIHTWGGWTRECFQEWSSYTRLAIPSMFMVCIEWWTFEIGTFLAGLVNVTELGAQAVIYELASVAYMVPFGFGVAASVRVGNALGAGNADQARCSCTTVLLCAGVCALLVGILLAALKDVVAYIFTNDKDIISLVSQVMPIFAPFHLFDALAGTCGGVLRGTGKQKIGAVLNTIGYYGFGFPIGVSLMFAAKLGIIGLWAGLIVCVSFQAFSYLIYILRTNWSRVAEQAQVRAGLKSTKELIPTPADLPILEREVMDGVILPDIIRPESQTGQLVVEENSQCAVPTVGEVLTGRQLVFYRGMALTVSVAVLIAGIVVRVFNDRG
# B1: mOct2 (Mus musculus) (protein)
# chain: MPTVDDILEHIGEFHLFQKQTFFLLALLSGAFTPIYVGIVFLGFTPNHHCRSPGVAELSQRCGWSPAEELNYTVPGLGSAGEVSFLSQCMRYEVDWNQSTLDCVDPLSSLAANRSHLPLSPCEHGWVYDTPGSSIVTEFNLVCAHSWMLDLFQSLVNVGFFIGAVGIGYLADRFGRKFCLLVTILINAISGVLMAISPNYAWMLVFRFLQGLVSKAGWLIGYILITEFVGLGYRRTVGICYQIAFTVGLLILAGVAYALPNWRWLQFAVTLPNFCFLLYFWCIPESPRWLISQNKNAKAMKIIKHIAKKNGKSVPVSLQSLTADEDTGMKLNPSFLDLVRTPQIRKHTLILMYNWFTSSVLYQGLIMHMGLAGDNIYLDFFYSALVEFPAAFIIILTIDRIGRRYPWAVSNMVAGAACLASVFIPDDLQWLKITVACLGRMGITIAYEMVCLVNAELYPTYIRNLAVLVCSSMCDIGGIVTPFLVYRLTDIWLEFPLVVFAVVGLVAGGLVLLLPETKGKALPETIEDAEKMQRPRKKKEKRIYLQVKKAELS
# notes: full open reading frame
# B2: mMate1 (Mus musculus) (protein)
# chain: MERTEESAPGPGGADAASERRGLRCLLLPGFLEELRALLVLAGPAFLAQLMMFLISFISSVFCGHLGKLELDAVTLAIAVINVTGISVGHGLSSACDTLISQTYGSQNLKHVGVILQRGTLILLLCCFPCWALFINTEQILLLFRQDPDVSRLTQTYVMIFIPALPAAFLYTLQVKYLLNQGIVLPQIMTGIAANLVNALANYVFLYHLHLGVMGSALANTISQFALAIFLFLYILWRRLHQATWGGWSWECLQDWASFLRLAIPSMLMLCIEWWAYEVGSFLSGILGMVELGAQSITYELAIIVYMIPSGFSVAANVRVGNALGAGNIDQAKKSSAISLIVTELFAVTFCVLLLGCKDLVGYIFTTDRDIVALVAQVIPIYAVSHLFEGLACTCGGILRGTGNQKVGAIVNAIGYYVIGLPIGIALMFAAKLGVIGLWSGIIICTTCQTTCFLAFIARLNWKRACQQAQVHANLKVNVALNSAVSHEPAHPVCPESHGEIMMTDLEKKDETQLDQPMNQQQALPIRPKDSNKLSGKQLALRRGLLLLGVVLVLVGGILVRVYIRIE
# notes: full open reading frame
# B3: mMate2 (Mus musculus) (protein)
# chain: MEPAEDSLGATIQPPELVRVPRGRSLRILLGLRGALSPDVRREAAALVALAGPVFLAQLMIFLISIVSSIFCGHLGKVELDAVTLAVSVVNVTGISVGTGLASACDTLMSQSFGGKNLKRVGVILQRGILILLLCCFPCWAIFLNTERLLLLLRQDPDVARLAQVYVMICIPALPAAFLFQLQTRYLQSQGIIMPQVIVGIAANVVNVGMNAFLLYALDLGVVGSAWANTTSQFFLSALLFLYVWWKRIHIHTWGGWTRECFQEWSSYTRLAIPSMFMVCIEWWTFEIGTFLAGLVNVTELGAQAVIYELASVAYMVPFGFGVAASVRVGNALGAGNADQARCSCTTVLLCAGVCALLVGILLAALKDVVAYIFTNDKDIISLVSQVMPIFAPFHLFDALAGTCGGVLRGTGKQKIGAVLNTIGYYGFGFPIGVSLMFAAKLGIIGLWAGLIVCVSFQAFSYLIYILRTNWSRVAEQAQVRAGLKSTKELIPTPADLPILEREVMDGVILPDIIRPESQTGQLVVEENSQCAVPTVGEVLTGRQLVFYRGMALTVSVAVLIAGIVVRVFNDRG
# B4: mOct1 (Mus musculus) (protein)
# chain: MPTVDDVLEHVGEFGWFQKQAFLLLCLISASLAPIYVGIVFLGFTPDHHCRSPGVAELSQRCGWSPAEELNYTVPGLGSAGEASFLSQCMKYEVDWNQSTLDCVDPLSSLAANRSHLPLSPCEHGWVYDTPGSSIVTEFNLVCGDAWKVDLFQSCVNLGFFLGSLVVGYIADRFGRKLCLLVTTLVTSLSGVLTAVAPDYTSMLLFRLLQGMVSKGSWVSGYTLITEFVGSGYRRTTAILYQVAFTVGLVGLAGVAYAIPDWRWLQLAVSLPTFLFLLYYWFVPESPRWLLSQKRTTQAVRIMEQIAQKNRKVPPADLKMMCLEEDASERRSPSFADLFRTPSLRKHTLILMYLWFSCAVLYQGLIMHVGATGANLYLDFFYSSLVEFPAAFIILVTIDRIGRIYPIAASNLVAGAACLLMIFIPHELHWLNVTLACLGRMGATIVLQMVCLVNAELYPTFIRNLGMMVCSALCDLGGIFTPFMVFRLMEVWQALPLILFGVLGLSAGAVTLLLPETKGVALPETIEEAENLGRRKSKAKENTIYLQVQTGKSPHT
# notes: full open reading frame
# Experiments:
# mMate2 = target: T1, mMate2; assay: inhibition of [3H]MPP+ uptake in mMate2-HEK293 cells at […]; assay type: cell-based
# [1] = substrate: O=C(O[C@H]1C[C@H]2CC[C@@H](C1)[N+]21CCCC1)C(O)(c1ccccc1)c1ccccc1; assay: [3H]trospium uptake in stably transfected HEK293 cells, Michaelis-Menten (Km); assay type: cell-based, Mus musculus
# [2] = substrate: C[n+]1ccc(-c2ccccc2)cc1; assay: cells, lysate or membranes
Molecule,inhibition of [3H]MPP+ uptake in mMate2-HEK293 cells at 10 and 100 μM (mMate2),Km [1] [µM],further results
CC[N+](CC)(CC)CC [tetraethylammonium],"mMate2 was significantly inhibited by tetraethylammonium (TEA), topotecan, acyclovir, and levofloxacin",,
C[C@H]1COc2c(N3CCN(C)CC3)c(F)cc3c(=O)c(C(=O)O)cn1c23 [levofloxacin],"mMate2 was significantly inhibited by tetraethylammonium (TEA), topotecan, acyclovir, and levofloxacin",,
Nc1nc2c(ncn2COCCO)c(=O)[nH]1 [acyclovir],"mMate2 was significantly inhibited by tetraethylammonium (TEA), topotecan, acyclovir, and levofloxacin",,
CC[C@@]1(O)C(=O)OCc2c1cc1n(c2=O)Cc2cc3c(CN(C)C)c(O)ccc3nc2-1 [topotecan],"mMate2 was significantly inhibited by tetraethylammonium (TEA), topotecan, acyclovir, and levofloxacin",,
B1,,78.5 ± 25.9,
B2,,29.3 ± 6.7,
B3,,,Km [2]: 60.0 ± 5.6 µM
B4,,58.7 ± 15.5,
